Test results as given in patent publication US20090298813A1, “USE OF NEUROPROTECTIVE COMPOUNDS IN OBTAINING MEDICAMENTS INTENDED FOR THE TREATMENT OF NEURODEGENERATING DISEASES” (LES LABORATOIRES SERVIER, priority 2007, published 2009).

Columns and labels:
glial cells = experiment: Protection from apoptosis caused in vitro in cultures of glial cells (OGD followed by reperfusion); type: cell-based, Sprague Dawley rats; conditions: 10 μM throughout OGD (3 h) and reperfusion (18 h); relative to control cultures subjected to OGD and reperfusion
Description: A study was carried out to determine if the compounds of the invention protect cultures of glial cells from the apoptosis brought about by oxygen and glucose deprivation (OGD) followed by reperfusion.
Glial cells are isolated from the brains of newborn Sprague Dawley rats and cultured. They are subjected to OGD for 3 hours by being placed in a glucose-free medium under anaerobic conditions in an incubator (5% CO2, 95% N2).
Reperfusion is carried out by returning the cultures for 18 hours to the normal medium [Dulbecco's modified Eagle […] (DMEM)], to which 10% fetal calf serum, 2 mM glutamine and 50 μg/ml of gentamicin have been added.
At the end of the OGD period, the adenosine triphosphate (ATP) content of the cultures is measured in order to assess the degree of ischaemia, using the BIOLUMINESCENT kit (luciferase luminescence).
The degree of apoptosis is quantified by counting the astrocyte nuclei labelled with the DNA-specific HOECHST 33258 fluorescent dye.
The compounds of the invention are added to the medium at a concentration of 10 μM throughout the OGD and reperfusion period.
The results are expressed as the percentage reduction in cell death relative to control cultures subjected to ischaemia by means of OGD and reperfusion.

newborn mice = experiment: Protection from neurodegeneration caused by ibotenate in newborn mice; type: in vivo, mouse; conditions: 20 mg/kg i.p.; for Reduction in the size of lesions relative to the controls, cortex / Reduction in the size of lesions relative to the controls, white matter: simultaneous injection at 0 h
Description: Ibotenate, an agonist of N-methyl-D-aspartate (NMDA) receptors, when administered by the intracerebral route to the newborn mouse, brings about lesions of excitotoxic origin in the neocortex and the underlying white matter.
The ibotenate injection is performed in newborn mice aged 5 days (P5). The compounds of the invention are administered by the i.p. route at a dose of 20 mg/kg [either simultaneously] (P5), [or 8, 24 or 48 hours after induction of the lesions]. […] Cell markers were applied to the brain slices of animals sacrificed at various times after administration of ibotenate and the compound of the invention: (1) cleaved caspase-3, an apoptosis marker; (2) isolectin, a microglial activation marker; (3) glial fibrillary acidic protein (GFAP), a marker of astrogliosis.

mouse striatum = experiment: Glial reaction in a 6-OHDA model of Parkinson's disease in the mouse; type: in vivo; conditions: single i.p. injection of 20 mg/kg 10 minutes after 6-OHDA; assessed at 7 days; relative to control group (6-OHDA and solvent)
Description: Unilateral injection of 6-OHDA into the mouse striatum using a micro-syringe (0.5 μl of a solution containing 8 μg/μl) causes, from the 3rd day, degeneration of the TH-positive neurons of the striatum, which is accompanied, from the 7th day, by neuronal loss also in the substantia nigra, in accordance with that which is observed. in Parkinson's disease in humans.
The compounds of the invention are administered by the intraperitoneal route in a single injection of 20 mg/kg 10 minutes after the intracerebral injection of 6-OHDA. One group of mice is sacrificed at 3 days, the other at 7 days.

[1] = test system: dopaminergic neurons of primary rat mesencephalic cultures; experiment: Neuroprotective effects and stimulation of the catecholaminergic phenotype in vitro (spontaneous death of dopaminergic neurons); type: cell-based
Description: The study is carried out in an in vitro model of primary rat mesencephalic cultures, wherein death of the dopaminergic neurons develops spontaneously and selectively when the cells mature. The culture conditions have been defined in detail in various publications (Douhou et al., J. of Neurochemistry, (2001), 78, 163-174). The culture media are changed daily and, under these conditions, the dopaminergic neurons, but not the other neurons such as GABA-ergic neurons, degenerate spontaneously. Natural trophic factors of the body such as GDNF (glial cell derived neurotrophic factor) have shown a protective effect on the dopaminergic neurons in this model.
The effects of Examples 1 and 12 were tested at 3 concentrations. The effect is analysed by measuring the rate of tritiated dopamine uptake and the number of surviving neurons by labelling the tyrosine hydroxylase with a fluorescent antibody.

[2] = deferred injection 8 h after ibotenate, sacrifice at 120 h
[3] = deferred injection 24 h after ibotenate, sacrifice at 120 h
[4] = deferred injection 48 h after ibotenate, sacrifice at 120 h

Which “Reduction in cell death, % reduction” value (glial cells) does the source give for `Cl.O=C1NN2c3ccc(Cl)cc3C3CCN4CCCC1C4C32` (single isomer, unassigned; (+)) [Example 1, (+) (2RS,7SR),(3RS,16RS)-10-Chloro-15-oxo-2,7,14,15-tetrahydro-14-aza-20,21-dinoreburnameninium chloride] here?
The value was 70%.

And the “Reparatory effect: reduction in the size of lesions relative to the controls, cortex” value (newborn mice; [2])?
The value was 57%.

And the “Reparatory effect: reduction in the size of lesions relative to the controls, white matter” value (newborn mice; [2])?
The value was 59%.

And the “Reparatory effect: reduction in the size of lesions relative to the controls, cortex” value (newborn mice; [3])?
The value was 39%.

And the “Reparatory effect: reduction in the size of lesions relative to the controls, white matter” value (newborn mice; [3])?
Its value is 61%.

What about the “Reparatory effect: reduction in the size of lesions relative to the controls, cortex” value (newborn mice; [4]) of the same molecule?
Its value is 10%.

And the “Reparatory effect: reduction in the size of lesions relative to the controls, white matter” value (newborn mice; [4])?
The value was 26%.

What about the “Reduction in the intensity of markers relative to the controls, GFAP (astrogliosis)” value (newborn mice; sacrifice at 8 h) of the same molecule?
The value was 24%.

What about the “Reduction in the intensity of markers relative to the controls, Isolectin (microglial activation)” value (newborn mice; sacrifice at 8 h) of the same molecule?
Its value is 39%.

And the “Reduction in the intensity of markers relative to the controls, Cleaved caspase-3 (apoptosis)” value (newborn mice; sacrifice at 24 h)?
Its value is 66%.

And the “Reduction in the intensity of markers relative to the controls, Isolectin (microglial activation)” value (newborn mice; sacrifice at 24 h)?
Its value is 39%.

What about the “Reduction in the intensity of markers relative to the controls, Cleaved caspase-3 (apoptosis)” value (newborn mice; sacrifice at 48 h) of the same molecule?
Its value is 71%.

What about the “Reduction in the intensity of markers relative to the controls, GFAP (astrogliosis)” value (newborn mice; sacrifice at 48 h) of the same molecule?
The value was 25%.

And the “Reduction in the intensity of markers relative to the controls, Isolectin (microglial activation)” value (newborn mice; sacrifice at 48 h)?
The value was 35%.

What about the “Reduction in the intensity of markers relative to the controls, GFAP (astrogliosis)” value (newborn mice; sacrifice at 72 h) of the same molecule?
Its value is 31%.

And the “Reduction in the intensity of markers relative to the controls, Isolectin (microglial activation)” value (newborn mice; sacrifice at 72 h)?
The value was 35%.

And the “Reduction in the intensity of markers relative to the controls, GFAP (astrogliosis)” value (newborn mice; sacrifice at 120 h)?
The value was 39%.

What about the “Reduction in the intensity of markers relative to the controls, Isolectin (microglial activation)” value (newborn mice; sacrifice at 120 h) of the same molecule?
Its value is 41%.

What about the “Reduction in the size of lesions relative to the controls, cortex” value (newborn mice; sacrifice at 8 h) of the same molecule?
Its value is 39%.

And the “Reduction in the size of lesions relative to the controls, white matter” value (newborn mice; sacrifice at 8 h)?
Its value is 66%.

What about the “Reduction in the size of lesions relative to the controls, cortex” value (newborn mice; sacrifice at 24 h) of the same molecule?
The value was 40%.

What about the “Reduction in the size of lesions relative to the controls, white matter” value (newborn mice; sacrifice at 24 h) of the same molecule?
The value was 61%.

And the “Reduction in the size of lesions relative to the controls, cortex” value (newborn mice; sacrifice at 48 h)?
Its value is 44%.

And the “Reduction in the size of lesions relative to the controls, white matter” value (newborn mice; sacrifice at 48 h)?
The value was 52%.

And the “Reduction in the size of lesions relative to the controls, cortex” value (newborn mice; sacrifice at 72 h)?
Its value is 52%.

What about the “Reduction in the size of lesions relative to the controls, white matter” value (newborn mice; sacrifice at 72 h) of the same molecule?
Its value is 56%.

What about the “Reduction in the size of lesions relative to the controls, cortex” value (newborn mice; sacrifice at 120 h) of the same molecule?
Its value is 46%.

What about the “Reduction in the size of lesions relative to the controls, white matter” value (newborn mice; sacrifice at 120 h) of the same molecule?
Its value is 62%.

And the “reduction of the area occupied by the astrocytes (GFAP) in the striatum” value (mouse striatum)?
Its value is 13%.

What about the “cell survival (number of surviving neurons, tyrosine hydroxylase labelling)” value [1] of the same molecule?
Its value is “significantly increase”.

What about the “rate of tritiated dopamine uptake” value [1] of the same molecule?
Its value is “significantly increase”.
